The NIST ThermoML archive (doi:10.1016/j.tca.2012.04.030)
Numbers after ± are expanded uncertainties.

How the values were obtained:
[1] = an = ratio of the nth substance listed; conditions: for surface tension liquid-gas: Ring tensiometer; for viscosity / mass density: 101 kPa, Liquid; for viscosity: Concentric cylinders viscometry; for mass density: Vibrating tube method
[2] = refractive index (Na D-line) (dimensionless); an = ratio of the nth substance listed; conditions: 101 kPa, Liquid, Standard Abbe refractometry

O=C(CO)[C@@H](O)[C@H](O)[C@H](O)CO [D-fructose] + C[N+](C)(C)CCO.[Cl-]
Conditions	mass density, [1] [kg/m3]	refractive index, [2]	surface tension liquid-gas, [1] [mN/m]	viscosity, [1] [mPa·s]
298.15 K, a2 = 1	1337 ± 1.6	1.523 ± 0.014	70.4 ± 1.1	14347 ± 1800
298.15 K, a2 = 1.5	1303.6 ± 1.5	1.521 ± 0.014	73.6 ± 1.2	12772 ± 1600
298.15 K, a2 = 2	1277.9 ± 1.5	1.519 ± 0.014	74 ± 1.2	11733 ± 1400
298.15 K, a2 = 2.5	1259 ± 1.4	1.522 ± 0.014	75 ± 1.2	17646 ± 2200
308.15 K, a2 = 1	1331.6 ± 1.6	1.521 ± 0.014	68 ± 1.1	7722.9 ± 920
308.15 K, a2 = 1.5	1298.2 ± 1.5	1.519 ± 0.014	71.7 ± 1.2	7126.1 ± 840
308.15 K, a2 = 2	1272.5 ± 1.4	1.518 ± 0.014	72 ± 1.2	6137.1 ± 720
308.15 K, a2 = 2.5	1253.7 ± 1.4	1.52 ± 0.014	73 ± 1.2	8556.6 ± 1000
318.15 K, a2 = 1	1326.2 ± 1.6	1.52 ± 0.014	66 ± 1.1	4050.5 ± 470
318.15 K, a2 = 1.5	1292.7 ± 1.5	1.517 ± 0.014	69.5 ± 1.1	3071 ± 350
318.15 K, a2 = 2	1266.9 ± 1.4	1.515 ± 0.014	70 ± 1.1	2457 ± 280
318.15 K, a2 = 2.5	1248.5 ± 1.4	1.517 ± 0.014	71 ± 1.1	4461.7 ± 520
328.15 K, a2 = 1	1320.7 ± 1.6	1.518 ± 0.014	64.4 ± 1.1	1415.9 ± 160
328.15 K, a2 = 1.5	1287.3 ± 1.5	1.515 ± 0.014	67.3 ± 1.1	1271.1 ± 140
328.15 K, a2 = 2	1261.2 ± 1.4	1.514 ± 0.014	68 ± 1.1	1261.7 ± 140
328.15 K, a2 = 2.5	1243.3 ± 1.4	1.516 ± 0.014	69 ± 1.1	1267.5 ± 140
338.15 K, a2 = 1	1315.2 ± 1.6	1.515 ± 0.014	62.6 ± 1	806.5 ± 86
338.15 K, a2 = 1.5	1281.8 ± 1.5	1.512 ± 0.014	65.6 ± 1.1	698.4 ± 74
338.15 K, a2 = 2	1255.5 ± 1.4	1.511 ± 0.014	66 ± 1.1	570.7 ± 61
338.15 K, a2 = 2.5	1237.9 ± 1.4	1.514 ± 0.014	67 ± 1.1	615.4 ± 65
348.15 K, a2 = 1	1309.3 ± 1.5	1.513 ± 0.014	61 ± 1	459.7 ± 48
348.15 K, a2 = 1.5	1275.9 ± 1.5	1.511 ± 0.014	63 ± 1	353.1 ± 37
348.15 K, a2 = 2	1249.7 ± 1.4	1.509 ± 0.014	64 ± 1	285.3 ± 30
348.15 K, a2 = 2.5	1232.4 ± 1.3	1.512 ± 0.014	65 ± 1.1	325.5 ± 34
358.15 K, a2 = 1	1303.1 ± 1.5	1.512 ± 0.014	59 ± 0.96	280.6 ± 29
358.15 K, a2 = 1.5	1269.7 ± 1.4	1.509 ± 0.014	61.3 ± 1	236.1 ± 24
358.15 K, a2 = 2	1241.9 ± 1.4	1.507 ± 0.014	62 ± 1	129.3 ± 13
358.15 K, a2 = 2.5	1226.9 ± 1.3	1.51 ± 0.014	63 ± 1	182.6 ± 19
